In experiment [1] the target is T1, CCR2 (Homo sapiens, UniProt P41597).
T1 construct: host or cells: HEK293T, transient
T1 sequence (P41597 1-360 isoform P41597-2): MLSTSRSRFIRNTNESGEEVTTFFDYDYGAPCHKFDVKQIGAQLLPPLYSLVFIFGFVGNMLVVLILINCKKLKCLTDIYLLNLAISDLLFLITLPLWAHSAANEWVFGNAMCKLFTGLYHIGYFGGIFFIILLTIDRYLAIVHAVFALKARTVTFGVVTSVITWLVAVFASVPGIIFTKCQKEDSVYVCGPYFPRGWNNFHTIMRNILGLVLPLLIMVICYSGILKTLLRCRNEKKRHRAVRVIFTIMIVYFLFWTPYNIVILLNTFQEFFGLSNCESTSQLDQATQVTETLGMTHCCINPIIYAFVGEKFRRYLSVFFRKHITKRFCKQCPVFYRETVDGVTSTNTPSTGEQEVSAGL
Nature of the experiment: Membrane-based NanoBRET saturation binding assay, CCR2_GSSG_Nluc membranes. Here is the method: Emission spectra of Nluc -labeled CCR1 (CCR1_Nluc) protein: The emission spectra of CCR1_Nluc has already been reported by Toy et al.1 For a confirmation of the reported data with new CCR1_Nluc membrane batches, furimazine (Promega, Mannheim, Germany 1:2000) was added to the membrane preparations (2 µg protein/well). […]
NanoBRET binding assays: Membrane-based NanoBRET saturation assay: For the establishment of our NanoBRET binding assay, we referred to recently published protocols. […]
Then, 20 µL of the membrane preparations diluted in assay buffer (3 µg total protein/well) were added and the plates were incubated for 90 min at 37 °C. Subsequently, 5 µL of a furimazine solution (Promega, Mannheim, Germany, final assay dilution: 1:5,000) were added to each well (final assay volume: 35 µL) before measuring luminescence with a CLARIOstar microplate reader using 620/10 nm and 475/30 nm emission filters after 5 min of incubation in the dark. Bioluminescence resonance energy transfer (BRET) was determined as the ratio of acceptor fluorescence and donor luminescence. […] Specific binding signals were calculated as a difference of total and non-specific binding. If required, netBRET values were calculated as the difference between total BRET values and the values obtained in the absence of a fluorescent ligand. […]
For orientation: In BRET a luciferase serves as donor, and the signal depends on an acceptor being close.

For experiment [2], the target named is T2, CCR1 (Homo sapiens, UniProt P32246).
T2 sequence (P32246 1-355): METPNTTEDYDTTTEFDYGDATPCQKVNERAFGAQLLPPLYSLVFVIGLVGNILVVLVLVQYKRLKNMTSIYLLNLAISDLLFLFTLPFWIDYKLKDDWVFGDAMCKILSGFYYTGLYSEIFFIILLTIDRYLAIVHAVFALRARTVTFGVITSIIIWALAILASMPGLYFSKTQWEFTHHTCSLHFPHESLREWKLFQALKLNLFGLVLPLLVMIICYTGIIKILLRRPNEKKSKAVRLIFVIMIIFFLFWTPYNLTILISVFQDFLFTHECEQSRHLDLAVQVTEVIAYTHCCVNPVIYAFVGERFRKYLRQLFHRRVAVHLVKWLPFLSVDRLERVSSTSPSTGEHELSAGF
In words: Live cell NanoBRET binding assay, HEK293T cells expressing CCR1_Nluc. Also on record: Promega pNLF1-C (Nluc) #CCR010TN00; host or cells: HEK293T, transient (PEI). Particulars: for Ki: 12 (1000 nM), live HEK293T cells.

The target in experiment [3] is T2, CCR1. Nature of the experiment: Membrane-based NanoBRET competition assay with 12 (2000 nM) and CCR1_Nluc membranes. It counts as binding. Further details: Promega pNLF1-C (Nluc) #CCR010TN00; host or cells: HEK293T, transient (PEI). The settings on record: for Ki: read-out: Ki, CCR1 (converted).
[4] abbreviates: 12 (2000 nM), CCR1_Nluc membranes.

Each structure is given as a SMILES string.

The Kd is the concentration at which binding is half-saturated. A low value points to tighter binding. In the case of `CN(C)c1ccc2c(-c3cc(C(=O)NCCOCCOCc4cn(CCCC(=O)C5=C(O)C(=O)N(c6ccc(Br)cc6F)C5C5CCCCC5)nn4)ccc3C(=O)[O-])c3ccc(=[N+](C)C)cc-3oc2c1` (stereo not shown) [compound 12], the Kd was determined as 1690 ± 310 nM in experiment [1] and 505 ± 93 nM in experiment [2] (live HEK293T cells expressing CCR1_Nluc).
With `O=C(C1=C(O)C(=O)N(CCc2ccc(O)cc2)C1c1ccc(F)cc1)c1ccccc1` (racemic) [compound 23], the Ki in experiment [3] (setting [4]) is 100 nM; in experiment [2] (read-out: Ki, live cells), 235 nM; in experiment [2] (read-out: pKi ± SEM, live cells (converted)) it was 229 nM. Further, the “CCR1 over CCR2 binding selectivity” value in experiment [3] (NanoBRET competition binding assays) is on record as “at least 172 fold”.
For the compound `CC(=O)C1=C(O)C(=O)N(c2ccc(Br)cc2F)C1C1CCCCC1` (stereo not shown) [compound 5, reference compound], in experiment [3] (setting [4]), the “pKi ± SEM, CCR1” value is 7.96 ± 0.10 and the Ki is 11.8 nM. For the same compound, the Ki in experiment [2] (read-out: Ki, live cells) worked out at 24.2 nM.
`CN(C)c1ccc2c(-c3cc(C(=O)NCCOCCOCc4cn(CCCC(=O)C5=C(O)C(=O)N(c6ccc(Cl)cc6F)C5C5CCCCC5)nn4)ccc3C(=O)[O-])c3ccc(=[N+](C)C)cc-3oc2c1` (stereo not shown) [compound 11] came in with a dissociation constant Kd in experiment [1] of 1980 ± 270 nM.

The record behind these values is article PMC11249626, “Fluorophore-Labeled Pyrrolones Targeting the Intracellular Allosteric Binding Site of the Chemokine Receptor CCR1” (ACS Pharmacology & Translational Science, 2024).
